Laboratory results from patent US7989464B2, “mGluR1 antagonists as therapeutic agents” (Schering Corporation, priority 2004, dated 2011).
Where two headings read alike, the source gives them in different places.

Biological target: T1, hmGluR1 receptor (Homo sapiens, UniProt Q13255)
T1 construct: expressed in transfected cells
Experiment: IC50 determination: intracellular calcium mobilization (FLIPR) upon Quisqualate stimulation in CHO cells stably expressing hmGluR1
Type: cell-based
Conditions: against Quisqualate 1 μM (EC80)
Procedure: A CHO cell line stably expressing hmGluR1 receptor was established. One day prior to assay, cells were split in growth media at concentration of 50,000 cells/well in a volume of 100 μl and seeded into black clear-bottom 96-well plates. After two to six hours, when cells were well attached to the plate, growth medium was replaced with assay medium (100 μL) consisting of DMEM high glucose, supplemented with GPT (1 U/mL) and Sodium pyruvate, 1 mM. Following overnight incubation, medium was discarded and cells were loaded for 2 h with dye from the Calcium 3 Assay Reagent Kit (Molecular Devices, # R8033), prepared according to manufacturers' instructions. […] Test compounds were added 10 minutes before Quisqualate.

[1] = FLIPR calcium mobilization, read-out: IC50 Class
[2] = class symbols, read-out: mGIuR 1 IC50

T1 sequence (Q13255 19-1194): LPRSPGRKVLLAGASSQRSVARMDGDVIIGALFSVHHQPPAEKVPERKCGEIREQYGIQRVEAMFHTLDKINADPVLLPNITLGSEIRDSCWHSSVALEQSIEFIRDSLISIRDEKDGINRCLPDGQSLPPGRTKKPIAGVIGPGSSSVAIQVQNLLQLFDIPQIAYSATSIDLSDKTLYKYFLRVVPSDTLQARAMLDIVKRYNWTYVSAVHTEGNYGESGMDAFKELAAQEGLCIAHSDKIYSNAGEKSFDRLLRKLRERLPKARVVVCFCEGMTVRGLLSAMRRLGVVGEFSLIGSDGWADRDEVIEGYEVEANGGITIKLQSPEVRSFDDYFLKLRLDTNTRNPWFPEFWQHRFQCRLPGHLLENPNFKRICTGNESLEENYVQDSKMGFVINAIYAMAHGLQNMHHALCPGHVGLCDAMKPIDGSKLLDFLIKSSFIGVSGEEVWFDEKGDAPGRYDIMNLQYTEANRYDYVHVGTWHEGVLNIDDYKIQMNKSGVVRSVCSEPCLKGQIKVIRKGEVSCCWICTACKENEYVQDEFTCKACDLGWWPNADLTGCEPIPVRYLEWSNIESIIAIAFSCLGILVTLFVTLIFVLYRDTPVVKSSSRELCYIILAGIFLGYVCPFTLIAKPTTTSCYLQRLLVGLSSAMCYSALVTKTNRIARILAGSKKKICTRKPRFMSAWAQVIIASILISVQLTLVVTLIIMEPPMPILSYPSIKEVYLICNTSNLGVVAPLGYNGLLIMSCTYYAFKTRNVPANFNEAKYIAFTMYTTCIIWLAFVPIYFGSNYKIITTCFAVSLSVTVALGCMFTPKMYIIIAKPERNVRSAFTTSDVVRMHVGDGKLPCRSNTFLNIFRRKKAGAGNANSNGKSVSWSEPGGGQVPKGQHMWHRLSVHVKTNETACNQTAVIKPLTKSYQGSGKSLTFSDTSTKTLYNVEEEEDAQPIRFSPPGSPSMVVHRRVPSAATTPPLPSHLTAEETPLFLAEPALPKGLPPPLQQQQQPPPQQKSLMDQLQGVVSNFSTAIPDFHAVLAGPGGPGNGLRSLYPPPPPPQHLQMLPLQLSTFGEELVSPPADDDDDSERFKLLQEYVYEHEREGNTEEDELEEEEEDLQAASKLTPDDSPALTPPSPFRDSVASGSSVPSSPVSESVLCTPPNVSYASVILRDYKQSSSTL

Row | IC50 [1] | IC50 [2] | Compound | further results
1 | 0.15 to 1 µM | – | Cc1ccc(-n2cnc3c(sc4ncnc(NC5CCC5)c43)c2=O)cc1 [95DH] | –
2 | – | 0.05 to 0.15 µM | COc1ccc(-n2cnc3c(sc4nccc(N5CCC5)c43)c2=O)cc1 [28AM] | –
3 | – | < 0.05 µM | CCN(C)c1ccnc2sc3c(=O)n(C4CCCCC4)cnc3c12 [28Y] | –
4 | < 0.05 µM | – | C#CCNc1ncnc2sc3c(=O)n(-c4ccc(Br)cc4)cnc3c12 [95EQ] | –
5 | < 0.05 µM | – | C=CCN(C)c1ccnc2sc3c(=O)n(-c4ccc(OC)cc4)cnc3c12 [28EA] | –
6 | – | 0.15 to 1 µM | CN(C)c1ccnc2sc3c(=O)n([C@H]4CC[C@H](O)CC4)cnc3c12 [15T] | –
7 | 0.15 to 1 µM | – | CNc1cccc2sc3c(=O)n(-c4ccc(Cl)cc4)cnc3c12 [103R] | –
8 | 0.15 to 1 µM | – | O=c1c2sc3ncc(Br)c(NC4CC4)c3c2ncn1-c1ccc(Cl)cc1 [28EI] | –
9 | – | 0.15 to 1 µM | Cc1ccc(-n2c(C)nc3c(sc4nccc(NCC(F)(F)F)c43)c2=O)cc1 [113L] | –
10 | – | > 1 µM | CCC(=O)Nc1ccnc2sc3c(=O)n(C4CCCCC4)cnc3c12 [73A] | –
11 | – | > 1 µM | O=C1CCCN1c1ccnc2sc3c(=O)n(C4CCCCC4)cnc3c12 [30C] | –
12 | < 0.05 µM | – | O=c1c2sc3nccc(NC4CC4)c3c2ncn1-c1ccc(Cl)cc1 [28HF] | –
13 | 0.15 to 1 µM | – | Cc1ccc(-n2cnc3c(sc4nccc(NCc5cccs5)c43)c2=O)cc1 [28EQ] | –
14 | – | 0.15 to 1 µM | COc1ccc(-n2cnc3c(sc4nccc(Nc5ccccc5)c43)c2=O)cc1 [28G] | –
15 | 0.05 to 0.15 µM | – | CCc1ccc(-n2cnc3c(sc4nccc(NC5CC5)c43)c2=O)cc1 [28BT] | –
16 | > 1 µM | – | CCOc1cnnc2sc3c(=O)n(-c4ccc(C)cc4)cnc3c12 [161A] | –

Row | IC50 [1] | IC50 [2] | Compound | further results
17 | – | < 0.05 µM | Cc1ccc(-n2cnc3c(sc4nccc(N)c43)c2=O)cc1 [72H] | –
18 | – | > 1 µM | CN(C)c1ccnc2sc3c(=O)n(NC(=O)C(F)(F)F)c(C(F)(F)F)nc3c12 [65B] | –
19 | < 0.05 µM | – | CCNc1ccnc2sc3c(=O)n(-c4cccc(Cl)c4)cnc3c12 [28CD] | –
20 | < 0.05 µM | – | CNc1ncnc2sc3c(=O)n(-c4ccc(OC)cc4F)cnc3c12 [95BI] | IC50 (FLIPR calcium mobilization, read-out: mGluR1 IC50): 0.0283 µM
21 | 0.15 to 1 µM | – | COc1ccc(-n2cnc3c(sc4ncnc(Nc5nccs5)c43)c2=O)cc1 [190D] | –
22 | – | < 0.05 µM | Nc1ccnc2sc3c(=O)n(C4CCCCC4)cnc3c12 [72A] | –
23 | – | 0.05 to 0.15 µM | CCN(CC)c1ccnc2sc3c(=O)n(-c4ccc(OC)cc4)cnc3c12 [28AQ] | –
24 | – | > 1 µM | CC(=O)Nc1ccnc2sc3c(=O)n(C4CCCCC4)cnc3c12 [73B] | –
25 | 0.05 to 0.15 µM | – | C=C(C)CNc1ncnc2sc3c(=O)n(-c4cccc(Cl)c4)cnc3c12 [95FK] | –
26 | 0.15 to 1 µM | – | CN(CC(O)CO)c1ccnc2sc3c(=O)n(-c4ccc(F)cc4)cnc3c12 (centres unmarked) [28HR] | –
27 | < 0.05 µM | – | CON(C)c1ccnc2sc3c(=O)n(-c4ccc(Cl)cc4)cnc3c12 [28DN] | –
28 | – | > 1 µM | COCCn1cnc2c(sc3nccc(N(C)C)c32)c1=O [15D] | –
29 | > 1 µM | – | Cc1ccc(-n2cnc3c(sc4nccc(N5CC[C@H](O)C5)c43)c2=O)cc1 [28CU] | –
30 | – | < 0.05 µM | CN(C)c1ccnc2sc3c(=O)n(N4CCCCC4)cnc3c12 [60A] | –
31 | – | > 1 µM | O=C(Nc1ccnc2sc3c(=O)n(C4CCCCC4)cnc3c12)c1ccccc1 [73C] | –

Continued, molecule first:

Row | Compound | IC50 [1] | IC50 [2] | further results
32 | Cc1ccc(-n2cnc3c(sc4ncc(Br)c(Cl)c43)c2=O)cc1 [compound 171] | > 1 µM | – | –
33 | Cc1ccc(F)c(-n2cnc3c(sc4nccc(N(C)C)c43)c2=O)c1 [7DZ] | – | < 0.05 µM | –
34 | CS(=O)(=O)N1CCN(c2ccnc3sc4c(=O)n(C5CCCCC5)cnc4c23)CC1 [compound 63] | – | 0.15 to 1 µM | –
35 | Cc1nc2cc(-n3cnc4c(sc5nccc(N(C)C)c54)c3=O)ccc2o1 [7BU] | – | > 1 µM | –
36 | Cc1cc(F)cc(-n2cnc3c(sc4nccc(N(C)C)c43)c2=O)c1 [7DX] | – | < 0.05 µM | –
37 | CNc1c(CNC2CCC2)cnc2sc3c(=O)n(-c4ccc(OC)cc4)cnc3c12 [compound 208] | 0.15 to 1 µM | – | –
38 | CN(C)c1ccnc2sc3c(=O)n(-c4ccc(O)cc4)cnc3c12 [7AK] | – | < 0.05 µM | –
39 | CCNc1c(C#N)cnc2sc3c(=O)n(C4CCCCC4)cnc3c12 [compound 50] | – | 0.15 to 1 µM | –
40 | Cc1ccc(-n2cnc3c(sc4nccc(N(C)C)c43)c2=O)nc1 [7DE] | – | < 0.05 µM | –
41 | CN(C)c1ccnc2sc3c(=O)n(-c4ccc(C(F)(F)F)cc4)cnc3c12 [7DO] | – | < 0.05 µM | –
42 | Cc1cc(N(C)C)c2c(n1)sc1c(=O)n(-c3ccc(C(F)(F)F)cc3)cnc12 [7DM] | – | 0.15 to 1 µM | –
43 | CN(C)c1ccnc2sc3c(=O)n(-c4ccc(Br)cc4F)cnc3c12 [7DU] | – | < 0.05 µM | –
44 | CN(C)c1ccnc2sc3c(=O)n(-c4ccc(C(C)(C)C)cc4)cnc3c12 [7BB] | – | > 1 µM | –
45 | CC(=O)c1c(C)nc2sc3c(=O)n(-c4ccc(C)cc4)cnc3c2c1-c1ccc(Cl)cc1 [P-8] | – | 0.15 to 1 µM | –
46 | CSc1ccc(-n2cnc3c(sc4nc(C)cc(N(C)C)c43)c2=O)cc1 [7DA] | – | 0.15 to 1 µM | –
